Results published in BindingDB's records for patent US11780845 (Relay Therapeutics, 2023).

What follows are compounds tested against Fibroblast growth factor receptor 2 (Homo sapiens, UniProt P21802) (assay: FGFR2 Biochemical Caliper Assay).
Description: Compounds of the present invention were also tested in a FGFR2 Biochemical Caliper Assay. Compounds were prepared in 10 mM DMSO solution and serially diluted into 11 concentrations by 3-fold dilution. […] 5 uL of ATP solution (100 uM) was added to start the reaction and the plate was incubated for 90 minutes, then 70 uL of stopping buffer (0.5M EDTA) was added to terminate the reaction. Each well was analyzed using EZ reader.

Fibroblast growth factor receptor 2, sequence (P21802 whole entry): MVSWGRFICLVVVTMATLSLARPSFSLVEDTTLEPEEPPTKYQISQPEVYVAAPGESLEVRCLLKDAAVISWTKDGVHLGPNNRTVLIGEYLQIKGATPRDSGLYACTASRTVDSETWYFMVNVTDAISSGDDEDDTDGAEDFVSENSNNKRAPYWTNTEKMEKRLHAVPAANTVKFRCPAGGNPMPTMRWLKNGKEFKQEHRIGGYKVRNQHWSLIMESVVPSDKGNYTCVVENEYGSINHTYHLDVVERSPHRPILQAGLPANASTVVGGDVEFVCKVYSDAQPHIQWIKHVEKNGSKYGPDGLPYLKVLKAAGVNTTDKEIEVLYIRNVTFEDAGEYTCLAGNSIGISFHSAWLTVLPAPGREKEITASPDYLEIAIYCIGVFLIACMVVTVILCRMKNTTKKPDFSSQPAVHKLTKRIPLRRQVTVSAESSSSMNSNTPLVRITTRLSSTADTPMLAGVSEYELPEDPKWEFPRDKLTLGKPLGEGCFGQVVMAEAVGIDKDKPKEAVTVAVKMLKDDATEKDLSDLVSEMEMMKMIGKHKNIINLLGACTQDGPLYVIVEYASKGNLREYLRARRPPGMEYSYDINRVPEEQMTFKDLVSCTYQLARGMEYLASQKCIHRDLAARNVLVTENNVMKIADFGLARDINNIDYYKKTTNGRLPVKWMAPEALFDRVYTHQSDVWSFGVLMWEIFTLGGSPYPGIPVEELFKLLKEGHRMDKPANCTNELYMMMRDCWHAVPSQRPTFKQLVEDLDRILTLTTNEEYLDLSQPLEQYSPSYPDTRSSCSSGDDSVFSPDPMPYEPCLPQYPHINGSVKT

IC50 [nM] | SMILES
< 100 | CC#CC(=O)Nc1ccc(-c2c(-c3ccc(Oc4cccc(C)n4)c(OC)c3)c3c(N)ncnc3n2C)cc1
< 100 | C=CC(=O)Nc1ccc(-c2c(-c3ccc(Oc4ccccc4)c(OC)c3)c3c(N)ncnc3n2C)cc1 [US11780845, Example 12]
< 100 | CC#CC(=O)N(C)c1ccc(-c2c(-c3ccc(Oc4cccc(C)n4)c(OC)c3)c3c(N)ncnc3n2C)cc1 [US11780845, Example 26]
< 100 | C=CC(=O)Nc1ccc(-c2c(-c3ccc(Oc4cccc(C)c4)c(OC)c3)c3c(N)ncnc3n2C)cc1 [US11780845, Example 27]
